We go through seven compounds from patent US6818651B2, “(Dihydro) isoquinoline derivatives as phosphodiesterase inhibitors” (Altana Pharma AG, priority 2000, dated 2004).

T1 sequence (Q13946 whole entry): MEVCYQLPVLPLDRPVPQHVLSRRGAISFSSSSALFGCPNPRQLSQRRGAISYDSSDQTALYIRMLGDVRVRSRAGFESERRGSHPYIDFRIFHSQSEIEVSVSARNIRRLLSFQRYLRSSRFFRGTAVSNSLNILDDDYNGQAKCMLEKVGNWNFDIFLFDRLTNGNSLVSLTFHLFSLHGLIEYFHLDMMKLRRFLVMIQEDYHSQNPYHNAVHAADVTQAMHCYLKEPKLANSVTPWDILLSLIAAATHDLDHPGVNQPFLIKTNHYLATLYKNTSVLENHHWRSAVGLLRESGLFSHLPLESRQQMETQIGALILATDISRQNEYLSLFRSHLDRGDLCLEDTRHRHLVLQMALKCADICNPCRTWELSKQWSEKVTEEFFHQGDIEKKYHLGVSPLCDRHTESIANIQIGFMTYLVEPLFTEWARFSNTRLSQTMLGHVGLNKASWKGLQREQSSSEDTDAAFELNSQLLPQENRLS

This assay addresses T1, recombinant PDE7A1 (Homo sapiens, UniProt Q13946).
T1 construct: made in house; host or cells: SF21 insect cells (baculovirus; virus made in SF9)
In words: Inhibition of PDE7 activity, modified SPA (scintillation proximity assay) test. Format: biochemical. The settings on record: recombinant PDE7A1 (1000×g supernatant of SF21 cells), 0.5 μM cAMP, [3H]cAMP SPA, 37° C.; read-out: −log IC50 (inhibition of PDE7 activity) (converted). An excerpt: Cloning and expression of PDE7: The cDNAs for PDE7A1 and 7A2 (GenBank Acc-: L12052 and u67932, respectively) were isolated, using RT-PCR, from total cellular RNA derived from the T cell line CCRF-CEM and cloned into the cloning vector pCR2.1 (Invitrogen, Groningen, NL) under standard conditions (the manufacturer's instructions). For expression in insect cells, the cDNAs were subcloned into the baculo expression vector pCRBac (Invitrogen, Groningen, NL).
The recombinant baculoviruses were prepared, by means of homologous recombination in SF9 insect cells, by cotransfecting the plasmids containing baculovirus DNA (wild type, wt) Bac-N-Blue (Invitrogen, Groningen, NL) for PDE7A1 and containing Baculo-Gold DNA (Pharmingen, Hamburg) using a standard protocol (Pharmingen, Hamburg). Wt virus-free recombinant virus supernatants were selected using plaque assay methods. After that, high-titre virus supernatants were prepared by amplifying 3 times. For determining the enzyme activities, the PDEs were expressed in SF21 cells by infecting 2×10^6 cells/ml with an MOI (multiplicity of infection) ≈5 in serum-free SF900 medium (Life Technologies, Paisley, UK) in spinner flasks. The cells were cultured at 28° C., and at a rotationall speed of 75 rpm, for 48 hours, after which they were pelleted for 5-10 min at 1000 g and 4° C. and then resuspended in 1×PBS at a concentration of 1-3×10^6 cells/ml. The protein content was determined by the Bradford method (BioRad, Munich) using BSA as the standard.
The SF21 insect cells are resuspended, at a concentration of approx. 10^7 cells/ml, in ice-cold (4° C.) homogenization buffer (20 mM Tris, pH 8.2, containing the following additions: 140 mM NaCl, 3.8 mM KCl, 1 mM EGTA, 1 mM MgCl2, 1 mM β-mercaptoethanol, 2 mM benzamidine, 0.4 mM Pefablock, 10 μM leupeptin, 10 μM pepstatin A, 5 μM trypsin inhibitor) and disrupted by ultrasonication. The homogenate is then centrifuged for 10 min at 1000×g and the supernatant is stored at −80° C. until subsequent use (see below).
The PDE7 activity was inhibited by said compounds in a modified SPA (scintillation proximity assay) test, supplied by Amersham Pharmacia Biotech (see procedural instructions “Phosphodiesterase [3H]cAMP SPA enzyme assay, code TRKQ 7090”), carried out in 96-well microtitre plates (MTPs). The test volume is 100 μl and contains 20 mM Tris buffer (pH 7.4), 0.1 mg of BSA (bovine serum albumin)/ml, 5 mM Mg^2+, 0.5 μM cAMP (including about 50,000 cpm of [3H]cAMP), 2 μl of the respective substance dilution in DMSO and sufficient recombinant PDE7A1 (1000×g supernatant, see above) to ensure that 15-20% of cAMP is converted under said experimental conditions. After a preincubation of 5 min at 37° C., the reaction is started by adding a substrate (cAMP) and the assays are incubated for a further 15 min; after that, they are stopped by adding SPA beads (50 μl). In accordance with the manufacturer's instructions, the SPA beads had previously been resuspended in water and diluted 1:3 (v/v) and added to IBMX (3 mM). After the beads have been sedimented (>30 min), the MTPs are analyzed in commercially available measuring appliances and the corresponding IC50 values of the compounds for the inhibition of PDE7 activity are determined from concentration-effect curves by means of non-linear regression.
The inhibitory values [inhibitory concentration as −logIC50 (mol/l)] which were determined for the compounds according to the invention are shown in the following table 1, in which the numbers of the compounds correspond to the numbers of the examples.
Regarding `COc1cc(C2=NCCc3ccc(Cl)cc32)ccc1NS(=O)(=O)c1ccc(OC(F)(F)F)cc1` [Compound 1a, 1-[4-(4-Trifluoromethoxybenzenesulfonamido)-3-methoxyphenyl]-7-chloro-3,4-dihydroisoquinoline], the half-inhibitory concentration (IC50) is 32.4 nM.

Consider `O=S(=O)(Nc1ccc(C2=NCCc3ccc(F)cc32)cc1)c1ccc2ccccc2c1` [Compound 4e, 1-[4-(Naphthalene-2-sulfonamido)phenyl]-7-fluoro-3,4-dihydroisoquinoline], for which the IC50 was 389 nM.

On to `O=S(=O)(Nc1ccc(C2=NCCc3ccc(Cl)cc32)cc1)c1cc(Br)c(Cl)s1` [Compound 6m, 1-[4-(4-Bromo-5chlorothiophene-2-sulfonamido)phenyl]-7-chloro-3,4-dihydroisoquinoline], for which the IC50 was 380 nM.

With `COc1cc(C2=NCCc3ccccc32)ccc1NS(=O)(=O)c1ccc(-c2ccon2)s1` [Compound 2a, 1-[4-(5-(Isoxazol-3-yl)-thiophene-2-sulfonamido)-3-methoxyphenyl]-3,4-dihydroisoquinoline], the concentration for half-maximal inhibition (IC50) was 295 nM.

With `O=S(=O)(C=Cc1ccccc1)Nc1ccc(C2=NCCc3ccc(Cl)cc32)cc1` [Compound 6h, 1-[4-(2-Phenylethenesulfonamido)phenyl]-7-chloro-3,4-dihydroisoquinoline], the IC50 was 245 nM.

In the case of `O=S(=O)(Nc1ccc(C2=NCCc3ccc(F)cc32)cc1)c1cccc(C(F)(F)F)c1` [Compound 4c, 1-[4-(3-Trifluoromethylbenzenesulfonamido)phenyl]-7-fluoro-3,4-dihydroisoquinoline], the IC50 is 257 nM.

`COc1cc(C2=NCCc3ccc(Cl)cc32)ccc1NS(=O)(=O)c1ccc(C)cc1` [Compound 1b, 1-[4-(4-Methylbenzenesulfonamido)-3-methoxyphenyl]-7-chloro-3,4-dihydroisoquinoline]: the IC50 was 123 nM.
